{"source": "patent US10184933B2", "about": "“Compositions, systems and methods for gene expression noise drug screening and uses thereof” (priority 2013, dated 2019)", "note": "Counter-ions that a name gives are not always drawn."}
{"system": "HIV-1 LTR promoter", "assay_type": "cell-based", "conditions": "not given"}
{"compound": "N=C(N)NCCN1CCCCCCC1", "note": "[V21, guanethidine sulfate]", "identified as variability enhancer (VE) in noise screen": "variability enhancers"}
{"compound": "CCCSc1ccc2nc(NC(=O)OC)[nH]c2c1", "note": "[albendazole]", "identified as variability enhancer (VE) in noise screen": "variability enhancers"}
{"compound": "C[C@H]1O[C@@H](O[C@H]2[C@@H](O)C[C@H](O[C@H]3[C@@H](O)C[C@H](O[C@H]4CC[C@@]5(C)[C@H](CC[C@@H]6[C@@H]5C[C@@H](O)[C@]5(C)[C@@H](C7=CC(=O)OC7)CC[C@]65O)C4)O[C@@H]3C)O[C@@H]2C)C[C@H](O)[C@@H]1O", "note": "[digoxin]", "identified as variability enhancer (VE) in noise screen": "variability enhancers"}
{"compound": "CNCCCC12CCC(c3ccccc31)c1ccccc12", "note": "[maprotiline hydrochloride]", "identified as variability suppressor (VS) in noise screen": "variability suppressors"}
{"compound": "[H]/N=C(/N)N/C(=N/[H])NCCc1ccccc1", "note": "[phenformin hydrochloride]", "identified as variability suppressor (VS) in noise screen": "variability suppressors"}
{"compound": "CC(=O)[O-].[Hg+][c]1ccccc1", "note": "[phenylmercuric acetate]", "identified as variability enhancer (VE) in noise screen": "variability enhancers"}
{"compound": "[O-][n+]1ccccc1[S-].[O-][n+]1ccccc1[S-].[Zn+2]", "note": "[pyrithione zinc]", "identified as variability suppressor (VS) in noise screen": "variability suppressors"}
{"compound": "Cc1cc2nc3c(=O)[nH]c(=O)nc-3n(C[C@H](O)[C@H](O)[C@H](O)CO)c2cc1C", "note": "[riboflavin]", "identified as variability enhancer (VE) in noise screen": "variability enhancers"}
{"compound": "c1ccc(C2CN3CCSC3=N2)cc1", "note": "(centres unmarked) [tetramizole hydrochloride]", "identified as variability enhancer (VE) in noise screen": "variability enhancers"}
{"compound": "Nc1nc2nc[nH]c2c(=S)[nH]1", "note": "[thioguanine]", "identified as variability enhancer (VE) in noise screen": "variability enhancers"}
{"system": "HIV-1 LTR promoter", "assay_type": "cell-based", "conditions": "10 uM, 24 hours"}
{"compound": "Nc1ccn([C@@H]2O[C@H](CO)[C@@H](O)[C@@H]2O)c(=O)n1", "note": "[cytarabine, (β-D-arabinofuranosyl)cytosine]", "noise deviation of VM hit in the screen": "+5 σ"}
{"system": "HIV-1 LTR promoter", "assay_type": "cell-based", "conditions": "Pharmakon 1600 library, 10 uM, 24 hours, FIG. 10"}
{"compound": "CN(Cc1cnc2nc(N)nc(N)c2n1)c1ccc(C(=O)N[C@@H](CCC(=O)O)C(=O)O)cc1", "note": "(racemic) [methotrexate(+/−)]", "identified as variability enhancer (VE) in noise screen": "variability enhancers"}
{"compound": "COC(=O)C1=CCCN(C)C1", "note": "[Arecoline hydrobromide]", "identified as variability enhancer (VE) in noise screen": "variability enhancers"}
{"compound": "CC(=O)O[C@H]1C(=O)[C@@]2(C)[C@H]([C@H](OC(=O)c3ccccc3)[C@]3(O)C[C@H](OC(=O)[C@H](O)[C@@H](NC(=O)c4ccccc4)c4ccccc4)C(C)=C1C3(C)C)[C@]1(OC(C)=O)CO[C@@H]1C[C@@H]2O", "note": "[Taxol]", "identified as variability enhancer (VE) in noise screen": "variability enhancers"}
{"compound": "S=c1nc[nH]c2nc[nH]c12", "note": "[V9, mercaptopurine]", "identified as variability enhancer (VE) in noise screen": "variability enhancers"}
{"compound": "CC(C)(C#N)c1cc(Cn2cncn2)cc(C(C)(C)C#N)c1", "note": "[V68, anastrozole]", "identified as variability enhancer (VE) in noise screen": "variability enhancers"}
{"compound": "CS(=O)(=O)OCCCCOS(C)(=O)=O", "note": "[V69, busulfan]", "identified as variability enhancer (VE) in noise screen": "variability enhancers"}
{"compound": "Nc1nc2[nH]cc(CCc3ccc(C(=O)N[C@@H](CCC(=O)O)C(=O)O)cc3)c2c(=O)[nH]1", "note": "[V74, pemetrexed]", "identified as variability enhancer (VE) in noise screen": "variability enhancers"}
{"compound": "Nc1c2ccccc2nc2ccccc12", "note": "[aminacrine]", "identified as variability enhancer (VE) in noise screen": "variability enhancers"}
{"compound": "Cl.N=C(N)NCCC[C@H](N)C(=O)O", "note": "[arginine hydrochloride]", "identified as variability enhancer (VE) in noise screen": "variability enhancers"}
{"compound": "C[N+](C)(C)CC(O)CC(=O)[O-].Cl", "note": "(centres unmarked) [carnitine hydrochloride]", "identified as variability enhancer (VE) in noise screen": "variability enhancers"}
{"compound": "Nc1nc(Cl)nc2c1ncn2[C@@H]1O[C@H](CO)[C@@H](O)[C@@H]1F", "note": "[clofarabine]", "identified as variability enhancer (VE) in noise screen": "variability enhancers"}
{"compound": "C[C@H]1O[C@@H](O[C@H]2[C@@H](O)C[C@H](O[C@H]3[C@@H](O)C[C@H](O[C@H]4CC[C@@]5(C)[C@H](CC[C@@H]6[C@@H]5CC[C@]5(C)[C@@H](C7=CC(=O)OC7)CC[C@]65O)C4)O[C@@H]3C)O[C@@H]2C)C[C@H](O)[C@@H]1O", "note": "[digitoxin]", "identified as variability enhancer (VE) in noise screen": "variability enhancers"}
{"compound": "CC(CCc1ccc(O)cc1)NCCc1ccc(O)c(O)c1", "note": "(centres unmarked) [dobutamine hydrochloride]", "identified as variability enhancer (VE) in noise screen": "variability enhancers"}
{"compound": "CCN1CC(CCN2CCOCC2)C(c2ccccc2)(c2ccccc2)C1=O", "note": "(centres unmarked) [doxapram hydrochloride]", "identified as variability enhancer (VE) in noise screen": "variability enhancers"}
{"compound": "C[C@@H](O)CN(CCN(C[C@@H](C)O)C[C@@H](C)O)C[C@@H](C)O", "note": "[editol]", "identified as variability enhancer (VE) in noise screen": "variability enhancers"}
{"compound": "O=C1OC2(c3ccccc31)c1cc(I)c(O)c(I)c1Oc1c2cc(I)c(O)c1I", "note": "[erythrosine sodium]", "identified as variability enhancer (VE) in noise screen": "variability enhancers"}
{"compound": "COC(=O)Nc1nc2ccc(Sc3ccccc3)cc2[nH]1", "note": "[fenbendazole]", "identified as variability enhancer (VE) in noise screen": "variability enhancers"}
{"compound": "COC1=CC(=O)C[C@@H](C)[C@]12Oc1c(Cl)c(OC)cc(OC)c1C2=O", "note": "[griseofulvin]", "identified as variability enhancer (VE) in noise screen": "variability enhancers"}
{"compound": "CCc1c2c(nc3ccc(OC(=O)N4CCC(N5CCCCC5)CC4)cc13)-c1cc3c(c(=O)n1C2)COC(=O)[C@]3(O)CC", "note": "[irinotecan hydrochloride]", "identified as variability enhancer (VE) in noise screen": "variability enhancers"}
{"compound": "O=C(O)c1nn(Cc2ccc(Cl)cc2Cl)c2ccccc12", "note": "[lonidamine]", "identified as variability enhancer (VE) in noise screen": "variability enhancers"}
{"compound": "N[C@@H](Cc1ccc(N(CCCl)CCCl)cc1)C(=O)O", "note": "[melphalan]", "identified as variability enhancer (VE) in noise screen": "variability enhancers"}
{"compound": "CO[C@@]12[C@H](COC(N)=O)C3=C(C(=O)C(C)=C(N)C3=O)N1C[C@@H]1N[C@@H]12", "note": "[mitomycin c]", "identified as variability enhancer (VE) in noise screen": "variability enhancers"}
{"compound": "CCN(CC)C(=O)c1cccnc1", "note": "[nikethamide]", "identified as variability enhancer (VE) in noise screen": "variability enhancers"}
{"compound": "C[C@@H]1O[C@@H](O[C@H]2C[C@@H](O)[C@]3(CO)[C@H]4[C@H](O)C[C@]5(C)[C@@H](C6=CC(=O)OC6)CC[C@]5(O)[C@@H]4CC[C@]3(O)C2)[C@H](O)[C@H](O)[C@H]1O", "note": "[ouabain]", "identified as variability enhancer (VE) in noise screen": "variability enhancers"}
{"compound": "COC(=O)Nc1nc2ccc([S+]([O-])c3ccccc3)cc2[nH]1", "note": "(centres unmarked) [oxfendazole]", "identified as variability enhancer (VE) in noise screen": "variability enhancers"}
{"compound": "Cc1cc2nc3c(=O)[nH]c(=O)nc-3n(C[C@H](O)[C@H](O)[C@H](O)COP(=O)([O-])O)c2cc1C.[Na+]", "note": "[riboflavin 5-phosphate sodium]", "identified as variability enhancer (VE) in noise screen": "variability enhancers"}
{"compound": "CO[C@H]1/C=C/O[C@@]2(C)Oc3c(C)c(O)c4c(O)c(c5c(nc6cc(C)ccn65)c4c3C2=O)NC(=O)/C(C)=C\\C=C\\[C@H](C)[C@H](O)[C@@H](C)[C@@H](O)[C@@H](C)[C@H](OC(C)=O)[C@@H]1C", "note": "[rifaximin]", "identified as variability enhancer (VE) in noise screen": "variability enhancers"}
{"compound": "NCCS(=O)(=O)O", "note": "[taurine]", "identified as variability enhancer (VE) in noise screen": "variability enhancers"}
{"compound": "C=C(NC(=O)C(=C)NC(=O)c1csc(C2=N[C@@H]3c4csc(n4)[C@H]4NC(=O)c5csc(n5)[C@H]([C@](C)(O)[C@@H](C)O)NC(=O)[C@H]5CSC(=N5)/C(=C/C)NC(=O)[C@H]([C@@H](C)O)NC(=O)c5csc(n5)[C@]3(CC2)NC(=O)[C@H](C)NC(=O)C(=C)NC(=O)[C@H](C)NC(=O)[C@H]([C@@H](C)CC)N[C@@H]2C=Cc3c([C@H](C)O)cc(nc3[C@H]2O)C(=O)O[C@@H]4C)n1)C(N)=O", "note": "[thiostrepton]", "identified as variability enhancer (VE) in noise screen": "variability enhancers"}
{"compound": "CN(C)C(=S)SSC(=S)N(C)C", "note": "[thiram]", "identified as variability enhancer (VE) in noise screen": "variability enhancers"}
{"compound": "CC[C@]1(O)C[C@H]2CN(CCc3c([nH]c4ccccc34)[C@@](C(=O)OC)(c3cc4c(cc3OC)N(C=O)[C@H]3[C@@](O)(C(=O)OC)[C@H](OC(C)=O)[C@]5(CC)C=CCN6CC[C@]43[C@@H]65)C2)C1", "note": "[vincristine sulfate]", "identified as variability enhancer (VE) in noise screen": "variability enhancers"}
{"compound": "CCC1=C[C@@H]2CN(C1)Cc1c([nH]c3ccccc13)[C@@](C(=O)OC)(c1cc3c(cc1OC)N(C)[C@H]1[C@@](O)(C(=O)OC)[C@H](OC(C)=O)[C@]4(CC)C=CCN5CC[C@]31[C@@H]54)C2", "note": "[vinorelbine]", "identified as variability enhancer (VE) in noise screen": "variability enhancers"}
{"compound": "Nc1ccn([C@H]2CC[C@@H](CO)O2)c(=O)n1", "note": "[zalcitabine]", "identified as variability enhancer (VE) in noise screen": "variability enhancers"}
{"system": "HIV-1 LTR promoter", "assay_type": "cell-based", "conditions": "Pharmakon 1600 library, 10 uM, 24 hours, FIG. 12"}
{"compound": "COc1ccc(Cc2nccc3cc(OC)c(OC)cc23)cc1OC", "note": "[Papaverine hydrochloride]", "identified as variability suppressor (VS) in noise screen": "variability suppressors"}
{"compound": "Nc1ncnc2c1ncn2[C@@H]1O[C@H](COP(=O)(O)O)[C@@H](O)[C@H]1O", "note": "[adenosine phosphate]", "identified as variability suppressor (VS) in noise screen": "variability suppressors"}
{"compound": "CN(C)CCCOc1nn(Cc2ccccc2)c2ccccc12", "note": "[benzydamine hydrochloride]", "identified as variability suppressor (VS) in noise screen": "variability suppressors"}
{"compound": "Cc1ccc2c(Br)cc(Br)c(OC(=O)c3ccccc3)c2n1", "note": "[broxaldine]", "identified as variability suppressor (VS) in noise screen": "variability suppressors"}
{"compound": "C[C@@H]1C[C@@H]([C@H](O)CC2CC(=O)NC(=O)C2)C(=O)[C@@H](C)C1", "note": "[cycloheximide]", "identified as variability suppressor (VS) in noise screen": "variability suppressors"}
{"compound": "COP(=O)(OC)OC=C(Cl)Cl", "note": "[dichlorvos]", "identified as variability suppressor (VS) in noise screen": "variability suppressors"}
{"compound": "CN1C[C@H](C(=O)N[C@]2(C)O[C@@]3(O)[C@@H]4CCCN4C(=O)[C@H](Cc4ccccc4)N3C2=O)C=C2c3cccc4[nH]cc(c34)C[C@H]21", "note": "[ergotamine tartrate]", "identified as variability suppressor (VS) in noise screen": "variability suppressors"}
{"compound": "N#Cc1nn(-c2c(Cl)cc(C(F)(F)F)cc2Cl)c(N)c1[S+]([O-])C(F)(F)F", "note": "(centres unmarked) [fipmnil, fipronil]", "identified as variability suppressor (VS) in noise screen": "variability suppressors"}
{"compound": "CCCCCC(=O)O[C@]1(C(C)=O)CC[C@H]2[C@@H]3CCC4=CC(=O)CC[C@]4(C)[C@H]3CC[C@@]21C", "note": "[hydroxyprogesterone caproate]", "identified as variability suppressor (VS) in noise screen": "variability suppressors"}
{"compound": "c1ccc2c(c1)Nc1ccccc1S2", "note": "[phenothiazine]", "identified as variability suppressor (VS) in noise screen": "variability suppressors"}
{"compound": "COP(=O)(OC)C(O)C(Cl)(Cl)Cl", "note": "(centres unmarked) [trichlorfon]", "identified as variability suppressor (VS) in noise screen": "variability suppressors"}
{"compound": "arsenic trioxide", "identified as variability suppressor (VS) in noise screen": "variability suppressors"}
